The values that follow come from patent publication US20240226107A1, “UBIQUITIN-SPECIFIC PROTEASE 1 (USP1) INHIBITOR” (SIMCERE ZAIMING PHARMACEUTICAL CO., LTD., priority 2021, published 2024).

Data set [1] addresses PXR (Homo sapiens (Human), UniProt O75469). Nature of the data set: Potential for PXR activation in DPX2 cells. The following applies: 30 μM, versus 20 μM rifampicin. The data set is classed as cell-based. As to the method:
DMSO solutions of the compounds to be tested and the control compound rifampicin solution were prepared, and diluted with Puracyp dosing medium (Puracyp, Cat. No: D-500-100) at 37° C. to respective test concentrations. The final concentrations of the compounds to be tested were 30 μM, 10 μM, and 1 μM, respectively, and the final concentration of rifampicin was 20 μM. The final concentration of DMSO in the test solution was 0.1%. In addition, 0.1% DMSO solution prepared with Puracyp dosing medium was used as a control.
DPX2 cells were suspended in Puracyp Culture medium (Puracyp, Cat No.: C-500-100) at a cell density of 4.5×10^5 cell/mL. Then, the suspension was placed on a 96-well culture plate at 100 μL/well for incubation at 37° C. for 24 h. The medium in appropriate wells of the 96-well culture plate was replaced (three times per well) by 100 μL of solution of the compounds to be tested and a control compound solution. After replacement, the plate was incubated at 37° C. for 24 h. The medium was then replaced (three times per well) by a newly prepared test solution of the compounds to be tested and a rifampicin test solution, and the plate was incubated at 37° C. for 24 h.
The medium in the 96-well culture plate was pipetted and washed twice with PBS. To each well, 50 μL of reagent diluted as required by CellTiter-Fluor™ Cell Viability Assay Kit (Promega, Cat. No.: G6082) was added, and incubated at 37° C. for 0.5 h. The 96-well plate was cooled to room temperature, and the fluorescence value of each well at 505 nm was measured in a fluorescence mode with a microplate reader at an excitation wavelength of 400 nm. Then, 50 μL of reagent prepared as required by One-Glo Luciferase Assay System (Promega, Cat. No.: E6120) was added to each well, and the mixture was incubated at room temperature for 5 min. The luminescence value of each well was read by using a lumen meter.
Normalized luciferase activity was determined by RLU/RFU, and the RLU and RFU of the samples were mean values of duplicate wells, respectively.
[formula] • Fold of activation: fold of activation of normalized luciferase; • RLUtest: measured luminescence value of test wells at each test dose of test compounds; • RLUvehicle: measured luminescence value of test wells when tested with the control DMSO solution; • RFUtest: measured fluorescence value of test wells at each test dose of test compounds; • RFUvehicle: measured fluorescence value of test wells when tested with the control DMSO solution.
The percentage of positive control was calculated as follows:
% Positive control=(fold activationtest compound−1)/(fold activationpositive control compound−1)×100% • % Positive control: percentage of PXR activation compared with 20 μM rifampicin activation at each test dose of test compounds; • Fold activationtest compound: fold of activation of normalized luciferase at each test dose of test compounds; • Fold activationpositive control compound: fold of activation of normalized luciferase of test compounds under 20 μM rifampicin.

The target of data set [2] is CYP1A2 (Homo sapiens (Human), UniProt P05177). Nature of the data set: CYP enzyme inhibition in pooled human liver microsomes (phenacetin). The data set is classed as in vitro ADME. As to the method:
(§1) Typical substrate metabolic responses of five major human CYP subtypes (CYP1A2, CYP2C9, CYP2C19, CYP2D6, CYP3A4) were evaluated using 150-donor pooled human liver microsomes (purchased from Corning, Cat. No.: 452117). The influence of different concentrations of each compound to be tested on metabolic responses of phenacetin (CYP1A2), diclofenac sodium (CYP2C9), S-mephenytoin (CYP2C19), bufuralol hydrochloride (CYP2D6), and midazolam (CYP3A4) was determined by liquid chromatography-mass spectrometry (LC/MS/MS). […] Then 200 μL of acetonitrile solution containing 3% formic acid and 40 nM internal standard verapamil was added and centrifuged at 4000 rpm for 50 min. The mixture was cooled on ice for 20 min and centrifuged at 4000 rpm for 20 min to precipitate the protein. Then 200 μL of supernatant was analyzed by LC-MS/MS. The peak area was calculated from the chromatogram. The residual activity ratio (%) was calculated according to the following equation: Peak area ratio=metabolite peak area/internal standard peak area Residual activity ratio (%)=peak area ratio of compounds-to-be-tested group/peak area ratio of blank group The half inhibitory concentration (IC50) for CYP was calculated by Excel XLfit 5.3.1.3.

Data set [3] has as its target CYP2C19 (Homo sapiens (Human), UniProt P33261). Nature of the data set: CYP enzyme inhibition in pooled human liver microsomes (S-mephenytoin). The data set is classed as in vitro ADME. As to the method: as §1

PXR, sequence (O75469 whole entry): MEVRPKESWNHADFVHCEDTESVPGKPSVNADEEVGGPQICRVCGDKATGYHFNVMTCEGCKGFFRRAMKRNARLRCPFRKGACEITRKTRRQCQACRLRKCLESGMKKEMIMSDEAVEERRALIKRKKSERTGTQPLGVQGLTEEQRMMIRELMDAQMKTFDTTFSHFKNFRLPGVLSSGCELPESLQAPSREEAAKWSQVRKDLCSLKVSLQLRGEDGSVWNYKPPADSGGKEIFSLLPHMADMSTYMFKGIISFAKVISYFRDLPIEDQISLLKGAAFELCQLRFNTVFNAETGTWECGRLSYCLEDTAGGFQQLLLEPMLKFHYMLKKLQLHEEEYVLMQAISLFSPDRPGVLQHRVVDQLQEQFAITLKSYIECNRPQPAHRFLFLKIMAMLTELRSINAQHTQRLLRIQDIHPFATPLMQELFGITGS
CYP1A2, sequence (P05177 whole entry): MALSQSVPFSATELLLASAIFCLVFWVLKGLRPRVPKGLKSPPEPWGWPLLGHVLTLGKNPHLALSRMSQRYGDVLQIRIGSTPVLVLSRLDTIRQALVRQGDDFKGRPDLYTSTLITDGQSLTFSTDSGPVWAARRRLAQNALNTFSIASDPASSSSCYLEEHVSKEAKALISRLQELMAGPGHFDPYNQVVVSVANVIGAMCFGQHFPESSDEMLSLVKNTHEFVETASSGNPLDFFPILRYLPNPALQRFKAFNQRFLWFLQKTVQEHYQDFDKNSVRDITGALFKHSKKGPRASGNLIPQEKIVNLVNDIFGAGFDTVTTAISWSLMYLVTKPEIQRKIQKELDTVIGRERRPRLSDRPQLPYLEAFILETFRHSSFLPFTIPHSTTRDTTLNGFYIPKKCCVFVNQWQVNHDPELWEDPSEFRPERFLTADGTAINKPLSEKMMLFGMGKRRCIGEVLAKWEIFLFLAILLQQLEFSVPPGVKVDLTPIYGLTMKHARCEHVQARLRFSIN
CYP2C19, sequence (P33261 whole entry): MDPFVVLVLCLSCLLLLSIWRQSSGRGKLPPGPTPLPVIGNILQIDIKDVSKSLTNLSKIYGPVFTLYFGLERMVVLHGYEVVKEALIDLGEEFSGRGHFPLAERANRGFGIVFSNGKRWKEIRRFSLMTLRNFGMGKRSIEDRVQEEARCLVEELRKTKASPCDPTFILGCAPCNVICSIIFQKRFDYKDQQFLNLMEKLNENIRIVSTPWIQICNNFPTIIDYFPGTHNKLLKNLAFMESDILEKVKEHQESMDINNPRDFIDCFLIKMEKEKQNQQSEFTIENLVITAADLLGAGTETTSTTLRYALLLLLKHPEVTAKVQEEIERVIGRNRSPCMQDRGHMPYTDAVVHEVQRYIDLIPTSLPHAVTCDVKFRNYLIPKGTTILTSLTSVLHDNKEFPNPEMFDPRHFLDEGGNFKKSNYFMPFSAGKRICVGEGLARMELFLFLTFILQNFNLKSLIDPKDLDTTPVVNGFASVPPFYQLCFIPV

For the molecule `COc1ncnc(C2CC2)c1-c1ncc2c(n1)N(Cc1ccc(-c3nc(C(F)(F)F)cn3C)cc1)CC(=O)N2C` [Compound 11, 2-(4-cyclopropyl-6-methoxypyrimidin-5-yl)-5-methyl-8-(4-(1-methyl-4-(trifluoromethyl)-1H-imidazol-2-yl)benzyl)-7,8-dihydropteridin-6(5H)-one], the “PXR activation (% Positive control)” value in data set [1] was 14.0 % Positive control. In addition, the IC50 (usually the concentration that gives 50% inhibition) in data set [2] is > 30 µM; in data set [3], 17.1 µM.
